From patent publication US20140205537A1, “LRRK2 INHIBITORS” (ZENOBIA THERAPEUTICS, INC., priority 2011, published 2014)

Key:
[1] = molecular target: ABL1 (Homo sapiens, UniProt P00519); experiment: Kinase selectivity panel: ABL1; format: biochemical
[2] = molecular target: CAMK2D (Homo sapiens, UniProt Q13557); experiment: Kinase selectivity panel: CAMK2D; format: biochemical
[3] = molecular target: G2019S LRRK2 (Homo sapiens, UniProt Q5S007, G2019S); experiment: G2019S LRRK2 inhibition (Invitrogen SelectScreen / TR-FRET biochemical assay); parameters: The protein construct used in the assay is GST tagged 969-2527; GST; purchased Invitrogen; conditions: numeric value
Sequence of G2019S LRRK2 (Q5S007 969-2527 G2019S): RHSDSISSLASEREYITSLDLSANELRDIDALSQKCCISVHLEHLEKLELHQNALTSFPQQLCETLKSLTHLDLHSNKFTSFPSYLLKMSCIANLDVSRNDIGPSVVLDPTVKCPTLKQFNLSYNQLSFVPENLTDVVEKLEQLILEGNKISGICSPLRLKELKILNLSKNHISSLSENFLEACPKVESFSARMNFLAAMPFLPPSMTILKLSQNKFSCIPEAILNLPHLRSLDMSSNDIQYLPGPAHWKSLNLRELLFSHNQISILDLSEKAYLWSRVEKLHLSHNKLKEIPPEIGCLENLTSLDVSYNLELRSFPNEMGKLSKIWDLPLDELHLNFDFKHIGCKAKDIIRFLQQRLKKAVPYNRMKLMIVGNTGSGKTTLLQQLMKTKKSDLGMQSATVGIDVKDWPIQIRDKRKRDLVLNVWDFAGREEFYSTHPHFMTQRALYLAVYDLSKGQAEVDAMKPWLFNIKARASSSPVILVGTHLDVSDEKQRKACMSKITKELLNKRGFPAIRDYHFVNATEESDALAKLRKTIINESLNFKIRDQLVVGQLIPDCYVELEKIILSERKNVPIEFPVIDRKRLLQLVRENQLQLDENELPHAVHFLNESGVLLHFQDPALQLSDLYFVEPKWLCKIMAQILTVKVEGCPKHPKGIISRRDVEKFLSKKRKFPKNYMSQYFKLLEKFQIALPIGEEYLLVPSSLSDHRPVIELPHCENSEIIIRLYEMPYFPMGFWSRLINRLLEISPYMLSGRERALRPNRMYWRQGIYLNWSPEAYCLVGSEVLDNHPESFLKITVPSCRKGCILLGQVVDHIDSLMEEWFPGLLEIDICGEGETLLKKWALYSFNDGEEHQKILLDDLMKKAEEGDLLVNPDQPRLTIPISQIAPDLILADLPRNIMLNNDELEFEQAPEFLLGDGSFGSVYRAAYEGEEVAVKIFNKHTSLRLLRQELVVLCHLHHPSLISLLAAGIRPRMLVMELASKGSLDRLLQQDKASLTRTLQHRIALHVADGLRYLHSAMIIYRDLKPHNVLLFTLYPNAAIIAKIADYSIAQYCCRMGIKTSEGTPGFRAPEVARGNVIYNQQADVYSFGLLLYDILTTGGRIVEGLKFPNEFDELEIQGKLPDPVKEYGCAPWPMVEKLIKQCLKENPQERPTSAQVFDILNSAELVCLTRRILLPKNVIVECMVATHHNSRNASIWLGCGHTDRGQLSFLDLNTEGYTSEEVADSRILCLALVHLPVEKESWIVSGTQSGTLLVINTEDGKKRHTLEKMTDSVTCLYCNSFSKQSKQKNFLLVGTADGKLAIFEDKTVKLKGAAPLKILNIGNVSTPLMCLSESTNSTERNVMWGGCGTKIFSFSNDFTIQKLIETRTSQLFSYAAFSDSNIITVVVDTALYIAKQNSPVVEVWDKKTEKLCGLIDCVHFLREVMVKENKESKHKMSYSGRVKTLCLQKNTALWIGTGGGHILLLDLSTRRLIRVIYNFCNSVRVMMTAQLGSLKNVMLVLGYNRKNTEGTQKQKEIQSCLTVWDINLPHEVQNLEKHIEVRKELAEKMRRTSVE
Protocol: IC50s were determined using Invitrogen's SelectScreen® Profiling Service for wild type and LRRK2 G2019S. The test compounds were screened in 1% DMSO (final) in the well.
a) % inhibition is measured at one concentration
b) a 10-point titration is run to ensure the kinase is inhibited within an expected IC50 range
Biochemical Assay Protocol:
Compound potency against wild-type and G2019S LRRK2 is measured via TR-FRET. The IC50, the amount of inhibitor required to inhibitor 50% of the protein under the given assay conditions, is determined by varying the amount of compound (500-0.001 uM) by serial dilution with 12-data points per compound, in duplicate. The substrate (Fluorescein-GAGRLGRDKYKTLRQIRQ) and ATP is fixed at 0.8 uM and 57 uM (KmATP), respectively. All assays are run in Corning low volume […] round bottomed plates. The assay is run in 50 mM Tris-HCl pH8.5, 10 mM MgCl2, 0.01% Brij-35, 1 mM EGTA, 2 mMDTT. The TR-FRET assay is an end-point assay where the reaction with protein, substrate, inhibitor and ATP is incubated for 1 hour at room temperature. The compound is pre-incubated with the protein and substrate prior to initiating the reaction with ATP. Phospho-transfer is detected using a Terbium labeled anti-pLRRKtide that binds to phosphorylated substrate creating FRET transfer when excited at 340 nm. Emissions signals are taken for terbium and FRET induced fluorescein at 495 nm and 520 nm, respectively, using a Biotek Synergy 2 spectrophotometer. The dose response is determined by plotting the emission ratio of 520/495 against the log of the inhibitor concentration. The maximum inhibition and non-inhibition controls is run on all plates. Staurosporine is used as the positive inhibition control and DMSO is used as the negative point control. A 12-point dose curve of Staurosporine is run as a dosing control. The IC50 is determined to be the inhibitor concentration at which 50% inhibition is achieved. The protein construct used in the assay is GST tagged 969-2527. The protein is commercially available from Invitrogen.
Alternatively, compounds of formulas (II), (I), (I-A), (I-B), (I-C), (I-D), (I-D-1), (I-D-2), (I-E), (I-F), (I-G), (I-H), (I-I), (I-I-1), (I-I-2), (I-J), (I-K), (I-L), (I-M), (I-N), (I-Z-1), (I-Z-2), (I-Z-2-a), (I-Z-2-b), (I-Z-2-c), (I-Z-2-d), (I-Z-3-a), (I-Z-3-b), (I-Z-3-c), or (I-Z-3-d) were tested using Invitrogen's SelectScreen® Profiling Service for LRRK2 G2019S.

[4] = molecular target: T1, IRAK4 (Homo sapiens, UniProt Q9NWZ3); experiment: Kinase selectivity panel: IRAK4; format: biochemical
T1 sequence (Q9NWZ3 1-460): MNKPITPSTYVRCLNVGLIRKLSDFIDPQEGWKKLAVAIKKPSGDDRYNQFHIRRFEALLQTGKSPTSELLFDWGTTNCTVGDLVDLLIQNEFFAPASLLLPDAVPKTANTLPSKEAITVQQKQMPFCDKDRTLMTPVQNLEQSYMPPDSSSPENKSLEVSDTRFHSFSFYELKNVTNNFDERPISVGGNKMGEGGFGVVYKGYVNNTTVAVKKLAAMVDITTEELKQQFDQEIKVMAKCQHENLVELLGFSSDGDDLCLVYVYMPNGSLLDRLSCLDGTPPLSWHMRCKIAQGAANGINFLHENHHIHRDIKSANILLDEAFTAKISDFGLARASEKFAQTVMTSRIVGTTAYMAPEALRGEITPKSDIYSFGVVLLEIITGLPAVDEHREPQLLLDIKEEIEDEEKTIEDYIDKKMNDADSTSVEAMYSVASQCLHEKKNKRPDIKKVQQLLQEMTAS

[5] = molecular target: CDK5/p35 (Homo sapiens, UniProt Q00535); experiment: Kinase selectivity panel: CDK5/p35; format: biochemical
Sequence of CDK5/p35 (Q00535 whole entry, species assumed): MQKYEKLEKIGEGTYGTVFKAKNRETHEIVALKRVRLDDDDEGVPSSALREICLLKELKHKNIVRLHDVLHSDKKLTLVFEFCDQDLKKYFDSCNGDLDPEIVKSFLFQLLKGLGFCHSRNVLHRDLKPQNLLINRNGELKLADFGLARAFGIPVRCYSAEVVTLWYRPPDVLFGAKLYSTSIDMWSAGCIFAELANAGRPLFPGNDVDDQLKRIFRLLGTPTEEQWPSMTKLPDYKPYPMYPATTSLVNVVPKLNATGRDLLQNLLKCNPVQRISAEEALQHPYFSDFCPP
Sequence of CDK5/p35 (Q15078 whole entry partner, species assumed): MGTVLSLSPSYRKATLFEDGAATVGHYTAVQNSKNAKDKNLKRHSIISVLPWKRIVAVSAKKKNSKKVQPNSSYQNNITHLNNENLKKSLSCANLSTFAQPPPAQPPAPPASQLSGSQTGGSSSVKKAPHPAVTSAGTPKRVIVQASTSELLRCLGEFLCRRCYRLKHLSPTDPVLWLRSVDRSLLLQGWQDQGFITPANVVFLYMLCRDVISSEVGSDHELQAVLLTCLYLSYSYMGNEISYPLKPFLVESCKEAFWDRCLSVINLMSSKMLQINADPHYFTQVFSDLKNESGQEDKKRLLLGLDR

[6] = molecular target: T2, CHEK1 (Homo sapiens, UniProt O14757); experiment: Kinase selectivity panel: CHEK1; format: biochemical
T2 sequence (O14757 1-476): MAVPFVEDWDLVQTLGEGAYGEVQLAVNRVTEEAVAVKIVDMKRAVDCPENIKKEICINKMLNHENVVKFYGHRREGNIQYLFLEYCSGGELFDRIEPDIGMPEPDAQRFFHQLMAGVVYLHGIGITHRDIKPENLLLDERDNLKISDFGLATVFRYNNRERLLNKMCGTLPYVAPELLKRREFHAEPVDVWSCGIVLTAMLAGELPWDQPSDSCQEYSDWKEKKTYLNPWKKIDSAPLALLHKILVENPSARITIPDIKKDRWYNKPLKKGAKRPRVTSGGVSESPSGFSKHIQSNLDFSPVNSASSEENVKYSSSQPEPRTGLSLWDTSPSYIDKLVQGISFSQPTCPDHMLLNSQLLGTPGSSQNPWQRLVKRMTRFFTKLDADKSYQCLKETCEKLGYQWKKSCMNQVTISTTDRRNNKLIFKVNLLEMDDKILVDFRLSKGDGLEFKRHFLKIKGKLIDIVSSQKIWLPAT

[7] = molecular target: MARK2 (Homo sapiens, UniProt Q7KZI7); experiment: Kinase selectivity panel: MARK2; format: biochemical
Sequence of MARK2 (Q7KZI7 whole entry, species assumed): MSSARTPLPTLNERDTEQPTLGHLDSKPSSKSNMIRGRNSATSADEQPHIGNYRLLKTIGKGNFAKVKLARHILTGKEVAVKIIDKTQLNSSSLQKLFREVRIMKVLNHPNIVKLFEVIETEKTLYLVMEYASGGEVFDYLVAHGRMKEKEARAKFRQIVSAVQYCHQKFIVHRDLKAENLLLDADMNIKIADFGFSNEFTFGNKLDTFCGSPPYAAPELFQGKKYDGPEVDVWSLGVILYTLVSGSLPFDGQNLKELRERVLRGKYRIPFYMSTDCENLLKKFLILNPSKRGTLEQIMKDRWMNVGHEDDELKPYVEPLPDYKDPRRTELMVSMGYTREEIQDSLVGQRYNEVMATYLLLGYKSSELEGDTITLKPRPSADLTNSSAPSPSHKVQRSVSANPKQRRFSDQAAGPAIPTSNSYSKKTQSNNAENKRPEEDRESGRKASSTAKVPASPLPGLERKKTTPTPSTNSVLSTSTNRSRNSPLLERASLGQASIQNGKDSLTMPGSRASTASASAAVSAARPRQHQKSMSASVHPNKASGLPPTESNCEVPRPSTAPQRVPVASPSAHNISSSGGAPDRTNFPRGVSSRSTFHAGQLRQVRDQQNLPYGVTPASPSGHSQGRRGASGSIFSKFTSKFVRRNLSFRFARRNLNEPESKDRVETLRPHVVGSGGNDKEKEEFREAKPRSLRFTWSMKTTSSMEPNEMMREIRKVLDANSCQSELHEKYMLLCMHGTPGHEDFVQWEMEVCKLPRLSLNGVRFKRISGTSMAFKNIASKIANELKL

[8] = molecular target: T3, AURKA (Homo sapiens, UniProt O14965); experiment: Kinase selectivity panel: AURKA; format: biochemical
T3 sequence (O14965 1-403): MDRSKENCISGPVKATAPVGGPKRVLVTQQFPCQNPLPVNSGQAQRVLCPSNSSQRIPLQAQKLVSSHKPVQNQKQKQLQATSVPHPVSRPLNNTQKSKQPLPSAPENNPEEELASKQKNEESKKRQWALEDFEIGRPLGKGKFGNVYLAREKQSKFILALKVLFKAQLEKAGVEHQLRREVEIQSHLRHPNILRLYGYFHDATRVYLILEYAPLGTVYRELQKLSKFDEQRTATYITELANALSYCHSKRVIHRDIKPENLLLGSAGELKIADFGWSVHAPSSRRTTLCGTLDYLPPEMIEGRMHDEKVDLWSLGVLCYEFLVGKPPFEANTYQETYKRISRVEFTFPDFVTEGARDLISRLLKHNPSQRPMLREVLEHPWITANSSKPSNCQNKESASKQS

Sequence of CAMK2D (Q13557 whole entry, species assumed): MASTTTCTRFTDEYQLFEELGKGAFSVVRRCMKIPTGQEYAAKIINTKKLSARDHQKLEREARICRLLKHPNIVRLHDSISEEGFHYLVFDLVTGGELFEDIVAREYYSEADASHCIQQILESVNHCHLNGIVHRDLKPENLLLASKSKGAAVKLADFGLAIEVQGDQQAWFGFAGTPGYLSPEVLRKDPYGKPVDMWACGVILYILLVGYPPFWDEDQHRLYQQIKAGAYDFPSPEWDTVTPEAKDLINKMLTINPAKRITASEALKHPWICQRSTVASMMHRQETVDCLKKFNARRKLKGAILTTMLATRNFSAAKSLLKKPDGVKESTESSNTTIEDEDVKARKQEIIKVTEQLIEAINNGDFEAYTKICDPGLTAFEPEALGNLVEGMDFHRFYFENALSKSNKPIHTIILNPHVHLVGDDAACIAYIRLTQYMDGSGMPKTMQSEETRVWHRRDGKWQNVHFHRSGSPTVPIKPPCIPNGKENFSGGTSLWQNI
Sequence of ABL1 (P00519 whole entry, species assumed): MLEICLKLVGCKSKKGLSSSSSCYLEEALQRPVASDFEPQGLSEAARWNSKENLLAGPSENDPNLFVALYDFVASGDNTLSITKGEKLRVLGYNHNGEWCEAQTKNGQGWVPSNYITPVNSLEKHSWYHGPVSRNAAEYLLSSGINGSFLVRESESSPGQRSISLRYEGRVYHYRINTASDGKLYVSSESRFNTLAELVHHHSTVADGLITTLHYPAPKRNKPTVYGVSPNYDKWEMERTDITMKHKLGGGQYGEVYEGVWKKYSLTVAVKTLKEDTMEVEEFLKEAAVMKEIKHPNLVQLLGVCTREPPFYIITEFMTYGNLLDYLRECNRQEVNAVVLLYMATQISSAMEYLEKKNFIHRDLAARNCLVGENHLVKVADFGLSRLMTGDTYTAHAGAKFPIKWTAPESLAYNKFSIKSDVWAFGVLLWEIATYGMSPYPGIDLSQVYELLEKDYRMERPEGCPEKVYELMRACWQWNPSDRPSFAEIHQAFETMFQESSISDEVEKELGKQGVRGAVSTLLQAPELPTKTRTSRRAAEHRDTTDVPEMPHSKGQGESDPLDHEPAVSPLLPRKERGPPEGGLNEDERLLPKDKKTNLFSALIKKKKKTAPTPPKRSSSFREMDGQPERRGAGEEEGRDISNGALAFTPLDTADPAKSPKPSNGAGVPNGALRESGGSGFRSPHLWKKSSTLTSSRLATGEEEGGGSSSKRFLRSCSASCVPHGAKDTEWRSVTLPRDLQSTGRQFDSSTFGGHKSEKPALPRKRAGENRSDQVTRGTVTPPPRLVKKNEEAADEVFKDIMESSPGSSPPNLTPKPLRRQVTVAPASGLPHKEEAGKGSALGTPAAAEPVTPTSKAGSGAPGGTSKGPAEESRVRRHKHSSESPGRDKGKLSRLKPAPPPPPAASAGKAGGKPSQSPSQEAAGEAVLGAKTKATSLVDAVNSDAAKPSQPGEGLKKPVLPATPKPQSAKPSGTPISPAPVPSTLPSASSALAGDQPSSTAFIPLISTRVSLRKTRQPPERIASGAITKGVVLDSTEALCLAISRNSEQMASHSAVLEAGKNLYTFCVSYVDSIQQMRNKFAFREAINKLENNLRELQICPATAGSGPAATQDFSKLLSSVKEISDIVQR

Row | IC50 [1] | IC50 [2] | IC50 [3] | IC50 [4] | IC50 [5] | IC50 [6] | IC50 [7] | IC50 [8] | Compound
1 | > 10000 nM | 275 nM | 7.6 nM | 3440 nM | > 10000 nM | > 10000 nM | 1840 nM | 5260 nM | COc1ccc2c(c1)/C(=C/c1cnc(C(C)C)[nH]1)C(=O)N2 [Compound 12, (3Z)-3-[(2-isopropyl-1H-imidazol-5-yl)methylene]-5-methoxy-indolin-2-one]
2 | 860 nM | 615 nM | 1.2 nM | 655 nM | 258 nM | 999 nM | 434 nM | 50 nM | Cc1ncc(/C=C2\C(=O)Nc3ccc(OC(C)C)cc32)[nH]1 [Compound 14, (3Z)-5-isopropoxy-3-[(2-methyl-1H-imidazol-5-yl)methylene]indolin-2-one]
3 | > 10000 nM | 1470 nM | 43.9 nM | > 10000 nM | > 10000 nM | > 10000 nM | > 10000 nM | > 10000 nM | COc1ccc2c(c1)/C(=C/c1cnc(C(C)(C)C)[nH]1)C(=O)N2 [Compound 19, (3Z)-3-[(2-tert-butyl-1H-imidazol-5-yl)methylene]-5-methoxy-indolin-2-one]
